Data: ChEMBL document CHEMBL5252601, “Hydroxy-xanthones as promising antiviral agents: Synthesis and biological evaluation against human coronavirus OC43” (Bioorg Med Chem Lett, 2023)

How the values were obtained:
Human coronavirus OC43 = experiment: Antiviral activity against HCoV-OC43 infected in hamster BHK-21 cells assessed as inhibition of viral infectivity per ml at 10 uM measured after 3 days; assay type: functional; details: time 3 day
BHK-21 = experiment: Cytotoxicity against hamster BHK-21 cells assessed as reduction in cell viability at 10 uM measured after 3 days; assay type: toxicity, cell-based, Mesocricetus auratus; details: bhk-21, 72 h, time 3 day

O=C(c1ccccc1O)c1ccc(O)cc1O
log(activity) (Human coronavirus OC43): 2.45 | Activity (BHK-21): >= 85%

O=c1c2c(O)cccc2oc2cc(O)cc(O)c12
log(activity) (Human coronavirus OC43): 2 | Activity (BHK-21): >= 85%

Cc1ccc2c(=O)c3c(O)cc(O)cc3oc2c1
log(activity) (Human coronavirus OC43): 2.42 | Activity (BHK-21): >= 85%

O=c1c2cc(F)ccc2oc2cc(O)cc(O)c12
log(activity) (Human coronavirus OC43): 2.38 | Activity (BHK-21): >= 85%

COc1ccc2c(=O)c3c(O)cc(O)cc3oc2c1
log(activity) (Human coronavirus OC43): 2.67 | Activity (BHK-21): >= 85%

O=c1c2cc(O)c(O)cc2oc2cc(O)c([C@@H]3O[C@H](CO)[C@@H](O)[C@H](O)[C@H]3O)c(O)c12 [MANGIFERIN]
log(activity) (Human coronavirus OC43): 3 | Activity (BHK-21): >= 85%

Cc1ccc2oc3cc(O)cc(O)c3c(=O)c2c1
log(activity) (Human coronavirus OC43): 2.79 | Activity (BHK-21): >= 85%

O=c1c2ccc(O)cc2oc2cccc(O)c12
log(activity) (Human coronavirus OC43): 2.2 | Activity (BHK-21): >= 85%

O=C(c1ccccc1O)c1ccc(O)c(O)c1O
log(activity) (Human coronavirus OC43): 1.95 | Activity (BHK-21): >= 85%

O=c1c2ccccc2oc2cc(O)cc(O)c12
log(activity) (Human coronavirus OC43): 2.5 | Activity (BHK-21): >= 85%

O=c1c2ccccc2oc2ccccc12 [XANTHONE]
log(activity) (Human coronavirus OC43): 2.04 | Activity (BHK-21): >= 85%

O=c1c2ccccc2oc2c(O)c(O)ccc12 [3,4-DIHYDROXYXANTHONE]
log(activity) (Human coronavirus OC43): 1.95 | Activity (BHK-21): >= 85%

COc1ccc2oc3cc(O)cc(O)c3c(=O)c2c1
log(activity) (Human coronavirus OC43): 2.67 | Activity (BHK-21): >= 85%
